In US6491951B1, “Soluble compositions of toremifene” (Orion Corporation, priority 1998, dated 2002):

Experiments:
[1] = Water solubility of toremifene and its salts; assay type: physicochemical; conditions: compared with toremifene citrate
pKa value of toremifene = assay type: physicochemical
[2] = Dissolving toremifene base in aqueous compositions with a solubility enhancing acid; assay type: physicochemical
From the text: The compositions of the invention can be prepared e.g. by mixing an amount of a solubility enhancing acid of the invention and purified water, adding thereafter toremifene base or a pharmaceutically acceptable salt thereof and agitating the mixture. pH may be adjusted with a water solution of corresponding acid salt or e.g. sodium hydroxide. The solubility enhancing agent is preferably used in molar excess with respect to toremifene or a pharmaceutically acceptable salt thereof. More preferably, the molar excess is at least about 1.5 fold, and most preferably at least about 2 fold, e.g. from about 2 to about 100 fold, typically from about 2 to about 10 fold.
The experiments also compare the effect of solubility enhancing agents of the invention to other acids such as hydrochloric acid, gluconic acid or citric acid.
Glacial acetic acid and purified water were mixed, toremifene base was added and dissolved. pH of the solution was about 4.
Lactic acid (85% water solution) and purified water were mixed, toremifene base was added and dissolved.
Formic acid and purified water were mixed, toremifene base was added and dissolved.
Toremifene base was dissolved in methanesulfonic acid, then purified water was added.
Lactic acid (85% water solution) and purified water were mixed, toremifene base was added and dissolved. pH was adjusted to about 5 by sodium lactate (50% water solution).
Manufactured as above but pH was adjusted to about 5 with sodium hydroxide.
Hydrochloric acid and purified water were mixed, toremifene base was added. Toremifene was not dissolved.
Sodium gluconate, concentrated hydrochloric acid and purified water were mixed, toremifene base was added. Toremifene was not dissolved.
Toremifene base and 30% water solution of citric acid were mixed together and ethanol was added gradually. Toremifene was not dissolved.

[3] = background statement; cited from earlier work

Molecule | Solubility in distilled water relative to toremifene citrate [1] | pKa (pKa value of toremifene) | Dissolution of toremifene base ([2]; Example 1: 18.4% toremifene base, glacial acetic acid 9.0%, purified water 72.6%, pH about 4) | Toremifene base content of the aqueous solution (by weight of the composition) ([2]; Example 1: glacial acetic acid 9.0%, purified water 72.6%, pH of the solution about 4) [%] | Dissolution of toremifene base ([2]; Example 2: 52.6% toremifene base, lactic acid (85%) 24.0%, purified water 23.4%) | Toremifene base content of the aqueous solution (by weight of the composition) ([2]; Example 2: lactic acid (85%) 24.0%, purified water 23.4%) [%] | Dissolution of toremifene base ([2]; Example 3: 8.2% toremifene base, formic acid 1.6%, purified water 90.2%) | Toremifene base content of the aqueous solution (by weight of the composition) ([2]; Example 3: formic acid 1.6%, purified water 90.2%) [%] | Dissolution of toremifene base ([2]; Example 4: 16.7% toremifene base dissolved in methanesulfonic acid 66.6%, then purified water 16.7% added) | Toremifene base content of the aqueous solution (by weight of the composition) ([2]; Example 4: methanesulfonic acid 66.6%, purified water 16.7%) [%] | Dissolution of toremifene base ([2]; Example 5: 3.7% toremifene base, lactic acid (85%) 1.7%, sodium lactate (50%) 4.4%, purified water 90.2%, pH about 5) | Toremifene base content of the aqueous solution (by weight of the composition) ([2]; Example 5: lactic acid (85%) 1.7%, sodium lactate (50%) 4.4%, purified water 90.2%, pH about 5) [%] | Toremifene base content of the aqueous solution (by weight of the composition) ([2]; Example 6: lactic acid (85%) 18.2%, sodium hydroxide 2 N 27.3%, purified water 18.2%, pH about 5) [%] | Dissolution of toremifene base ([2]; Example 7 (reference): 9.1% toremifene base, hydrochloric acid 1 N 31.8%, purified water 59.1%) | Dissolution of toremifene base ([2]; Example 8 (reference): 1.0% toremifene base, sodium gluconate 1.0%, concentrated hydrochloric acid 1.0%, purified water 97.0%) | Dissolution of toremifene base ([2]; Example 9 (reference): 1.0% toremifene base, citric acid (30%) 10.3%, ethanol 88.7%) | Concentration of toremifene base solutions that can be prepared ([2]; two fold molar excess of lactic acid and purified water) | Concentration of toremifene base solutions that can be prepared ([2]; two fold molar excess of lactic acid, pH adjusted to about 5 with sodium hydroxide) | Solubility in water [3]
toremifene mesylate | about 70 times higher |  |  |  |  |  |  |  |  |  |  |  |  |  |  |  |  |  | 
CN(C)CCOc1ccc(/C(=C(/CCCl)c2ccccc2)c2ccccc2)cc1 [Toremifene base, toremifene] |  | 8 | dissolved | 18.4 | dissolved | 52.6 | dissolved | 8.2 | A clear solution was obtained | 16.7 | dissolved | 3.7 | 36.3 | not dissolved | not dissolved | not dissolved | about 50 w-% | about 36 w-% | poorly soluble in water
